# Data taken from article PMC12056667 (Chemical Science, 2025).
# Values joined by “and” are separate entries in the source; they are usually repeats but may differ in a detail not shown here. Equal entries are not always repeated. Where two headings read alike, the source gives them in different places.
# Experiments:
# [1] = test system: Acinetobacter baumannii NT5-1 – tet(X5); assay: microbe, parasite or virus in culture; assay type: cell-based; details: for Antibiotic MIC: alone, A. baumannii NT5-1
# Procedure: (§1) MIC tests and checkerboard assays were performed in U-bottom, 96-well microtiter plates using a modified broth microdilution protocol following CLSI guidelines. Cation-adjusted Mueller-Hinton Broth (CAMHB) was prepared fresh on the day of testing.[74] […] Bacterial colonies were selected from an overnight culture on MHA plates (supplemented with 0.2%w/vL-arabinose for E. coli TOP10 containing pBAD-TOPO-Tet(X4)) and were suspended in 0.9% saline solution to achieve a 0.5 McFarland standard. A 100 μL aliquot of this suspension was then diluted into 9.9 mL of CAMHB to yield approximately 1.5 × 10^6 cfu mL^−1. 50 μL of the suspension was then added to each well of a microtiter plates. Plates were incubated at 37 °C for 18 h. At least 2 replicates were conducted for each combination. E. coli TOP10 + pBAD-TOPO-Tet(X4) cells were grown in the absence and presence of 0.2%w/vL-arabinose. Analysis of the MIC and checkerboard results were carried out by visual inspection of growth, with and without resazurin dye, an oxidation–reduction indicator.[75] As a measure of synergy, fractional inhibitory concentration index (FICI) was calculated as FICA + FICB, where FICA and FICB are the MICcombination/MICalone for each agent, respectively.[76] Results were interpreted as follows: synergistic (<0.5), indifferent (1.0–4.0) or antagonistic (>4.0).[64] In cases where the MIC exceeded or was below the measured range, the borderline value was taken to calculate the FIC index.
# [2] = test system: Escherichia coli T-24a – tet(X4); assay: microbe, parasite or virus in culture; assay type: cell-based; details: for Antibiotic MIC: alone
# Procedure: as §1
# [3] = test system: Proteus penneri NT6-2 – tet(X6); assay: microbe, parasite or virus in culture; assay type: cell-based; details: for Antibiotic MIC: alone, P. penneri NT6-2
# Procedure: as §1
# Tet(X4) = Tet(X4) (Escherichia coli, UniProt A0A3T0V9Y5); assay: FP competitive displacement of probe 6; assay type: binding; details: IC50app, 25 nM 6, 40 nM Tet(X4), 5 mM MgCl2, 1 μM FAD, 100 mM Tris pH 7.0, 0.01% Triton X-100
# Procedure: A 2× solution containing 80 nM Tet(X4), 2 μM FAD and 10 mM MgCl2 in the assay buffer was dispensed into the first 22 columns of a 384-well black, non-binding microtiter plate (Greiner Bio-One), 12.5 μL per well, using a microplate reagent dispenser. A solution of 2 μM FAD and 10 mM MgCl2 in the assay buffer was dispensed into the remaining columns to serve as a no enzyme control. A 3-fold, 10-point dilution series of substrates and inhibitors was made in DMSO in a V-bottom 96-well plate (Greiner Bio-One) with a highest concentration of 5 mM or 0.5 mM. Into one column was added DMSO with no inhibitor or substrate, to serve as a positive control. Tigecycline was included as a reference on every plate to ensure reproducibility. 0.5 μL of each dilution was transferred in quadruplicate to the 384-well plate containing enzyme solution using a CyBi-Well liquid-handling robot (CyBio). A solution of 50 nM 6 in the assay buffer was then dispensed, with 12.5 μL per well. The plate was briefly centrifuged (1000 rpm), then incubated at ambient temperature for 30 min prior to measuring the FP. Data points were normalised between the positive and negative controls. Normalised % response was plotted as a function of log10([Inhibitor]), and the IC50^app was determined by fitting the data to the equation: Y = Bottom + (top-bottom)/(1 + 10^Log(IC50) − X) × HillSlope in GraphPad Prism 9.4.1, where Y = % response and X = log10([Inhibitor]). Wells with unusual fluorescence intensities were manually identified and removed from the analysis. […]
# [4] = test system: E. coli TOP10 containing plasmid pBAD-TOPO-Tet(X4); assay: Broth microdilution MIC and checkerboard assay; assay type: cell-based, Escherichia coli; details: for Antibiotic MIC / Tet(X) inhibitor MIC: alone; for MIC: Escherichia coli; for Combination (antibiotic/inhibitor) MIC: inhibitor: inhibitor in combination with tigecycline; for Combination (antibiotic/inhibitor) MIC: inhibitor / Combination (antibiotic/inhibitor) MIC: antibiotic: lowest FICI; for Combination (antibiotic/inhibitor) MIC: antibiotic: tigecycline in combination with the inhibitor; for FICI / Outcome: with tigecycline
# Source text: Tet(X4) was sub-cloned from the Tet(X4) pET28b-(+) expression vector via TOPO cloning. The insert was amplified using the taq polymerase with the forward primer 5′- […]-3′ and the reverse primer 5′- […]-3’. Following PCR purification (Thermo Fisher Scientific), the A-tailed PCR product was ligated into the pBAD-TOPO vector using a TOPO cloning kit (Invitrogen) according to the manufacturer's protocol. Following amplification in E. coli NEB5α cells (NEBiolabs), the fidelity of the insert was confirmed by Sanger sequencing (Eurofins). For microbiological experiments, E. coli TOP10 cells were used as the recipient strain. Cells were plated on Mueller-Hinton agar (MHA) plates containing ampicillin at 100 μg mL^−1. The introduction of pBAD-TOPO-Tet(X4) was confirmed by colony PCR. Strains were stored in a freezer at −80 °C in cryopreservation beads.
# as §1
# [5] = test system: Acinetobacter spp. NT3-1 – tet(X3); assay: microbe, parasite or virus in culture; assay type: cell-based; details: for Antibiotic MIC: alone
# Procedure: (§2) MIC tests and checkerboard assays were performed in U-bottom, 96-well microtiter plates using a modified broth microdilution protocol following CLSI guidelines. Cation-adjusted Mueller-Hinton Broth (CAMHB) was prepared fresh on the day of testing.[74] In brief, assays were set up in a total volume of 100 μL per well and titrations comprised seven 2-fold dilutions of inhibitors and ten 2-fold dilutions of tigecycline in CAMHB. Bacterial colonies were selected from an overnight culture on MHA plates (supplemented with 0.2%w/vL-arabinose for E. coli TOP10 containing pBAD-TOPO-Tet(X4)) and were suspended in 0.9% saline solution to achieve a 0.5 McFarland standard. A 100 μL aliquot of this suspension was then diluted into 9.9 mL of CAMHB to yield approximately 1.5 × 10^6 cfu mL^−1. 50 μL of the suspension was then added to each well of a microtiter plates. Plates were incubated at 37 °C for 18 h. At least 2 replicates were conducted for each combination. E. coli TOP10 + pBAD-TOPO-Tet(X4) cells were grown in the absence and presence of 0.2%w/vL-arabinose. Analysis of the MIC and checkerboard results were carried out by visual inspection of growth, with and without resazurin dye, an oxidation–reduction indicator.[75] As a measure of synergy, fractional inhibitory concentration index (FICI) was calculated as FICA + FICB, where FICA and FICB are the MICcombination/MICalone for each agent, respectively.[76] Results were interpreted as follows: synergistic (<0.5), indifferent (1.0–4.0) or antagonistic (>4.0).[64] In cases where the MIC exceeded or was below the measured range, the borderline value was taken to calculate the FIC index.
# [6] = test system: Salmonella enterica T-2a – tet(X4); assay: microbe, parasite or virus in culture; assay type: cell-based; details: for Antibiotic MIC: alone, S. enterica T-2a
# Procedure: as §2
# [7] = inhibitor in combination with tigecycline, lowest FICI
# [8] = tigecycline in combination with the inhibitor, lowest FICI
# [9] = induced with 0.2%w/v L-arabinose
smiles,measurement,setting,value
C[C@H]1c2cccc(O)c2C(=O)C2=C(O)[C@]3(O)C(=O)C(C(N)=O)=C(O)[C@@H](N(C)C)[C@@H]3[C@@H](O)[C@@H]21 [Doxycycline],Antibiotic MIC,[1],32 µg/mL
same,Antibiotic MIC,[2]; E. coli T-24a,32 µg/mL
same,Antibiotic MIC,[3],16 µg/mL
same,IC50,Tet(X4); FP assay,1580 ± 150 nM
same,Antibiotic MIC,[4]; 0.2%w/v L-arabinose (Table S7),32 µg/mL
same,Antibiotic MIC,[4]; without L-arabinose induction,1 µg/mL
same,Antibiotic MIC,[5]; Acinetobacter spp. NT3-1,8 µg/mL
same,Antibiotic MIC,[6],32 µg/mL
CN1CCN(CCCN2c3ccccc3Sc3ccc(Cl)cc32)CC1 [Prochlorperazine],MIC,"[1]; Acinetobacter baumannii, read-out: Tet(X) Inhibitor MIC",128 µg/mL
same,Combination (Antibiotic/Inhibitor) MICs: inhibitor,[1]; [7],64 µg/mL
same,Combination (Antibiotic/Inhibitor) MICs: antibiotic,[1]; [8],1 µg/mL
same,FICI,[1]; with tigecycline,0.6
same,Outcome,[1]; with tigecycline,indifferent (indifferent (0.5-4.0))
same,MIC,"[2]; Escherichia coli, read-out: Tet(X) Inhibitor MIC, alone, E. coli T-24a",256 µg/mL
same,Combination (Antibiotic/Inhibitor) MICs: inhibitor,[2]; [7],32 µg/mL
same,Combination (Antibiotic/Inhibitor) MICs: antibiotic,[2]; [8],8 µg/mL
same,FICI,[2]; with tigecycline,0.6
same,Outcome,[2]; with tigecycline,indifferent (indifferent (0.5-4.0))
same,MIC,"[3]; Proteus penneri, read-out: Tet(X) Inhibitor MIC",> 128 µg/mL
same,Combination (Antibiotic/Inhibitor) MICs: inhibitor,[3]; [7],128 µg/mL
same,Combination (Antibiotic/Inhibitor) MICs: antibiotic,[3]; [8],4 µg/mL
same,FICI,[3]; with tigecycline,2
same,Outcome,[3]; with tigecycline,indifferent (indifferent (0.5-4.0))
same,MIC,"[4]; read-out: Tet(X) Inhibitor MIC, alone, without L-arabinose induction",64 µg/mL
same,Tet(X) inhibitor MIC,[4]; [9],64 µg/mL
same,Tet(X) inhibitor MIC,"[4]; induced with 0.2%w/v L-arabinose, listed as prochlorperazine",16 to 64 µg/mL
same,reduction of the tigecycline MIC,"[4]; at high concentrations of inhibitor, 0.2%w/v L-arabinose",2–4 fold
same,Combination (antibiotic/inhibitor) MIC: inhibitor,[4]; 0.2%w/v L-arabinose,16 µg/mL
same,Combination (antibiotic/inhibitor) MIC: inhibitor,[4]; without L-arabinose,32 µg/mL
same,Combination (antibiotic/inhibitor) MIC: antibiotic,[4]; 0.2%w/v L-arabinose,2 µg/mL
same,Combination (antibiotic/inhibitor) MIC: antibiotic,[4]; without L-arabinose,0.13 µg/mL
same,FICI,[4]; 0.2%w/v L-arabinose,0.8
same,Outcome,[4]; 0.2%w/v L-arabinose,Indifferent (indifferent (0.5–4.0))
same,FICI,"[4]; 0.2%w/v L-arabinose, listed as prochlorperazine",0.5-1
same,FICI,[4]; without L-arabinose,1
same,Outcome,[4]; without L-arabinose,indifferent (indifferent (0.5-4.0))
same,MIC,"[5]; Acinetobacter, read-out: Tet(X) Inhibitor MIC, alone, Acinetobacter spp. NT3-1",8 µg/mL
same,Combination (Antibiotic/Inhibitor) MICs: inhibitor,[5]; [7],8 µg/mL
same,Combination (Antibiotic/Inhibitor) MICs: antibiotic,[5]; [8],4 µg/mL
same,FICI,[5]; with tigecycline,2
same,Outcome,[5]; with tigecycline,indifferent (indifferent (0.5-4.0))
same,MIC,"[6]; Salmonella enterica, read-out: Tet(X) Inhibitor MIC",> 128 µg/mL
same,Combination (Antibiotic/Inhibitor) MICs: inhibitor,[6]; [7],64 µg/mL
same,Combination (Antibiotic/Inhibitor) MICs: antibiotic,[6]; [8],16 µg/mL
same,FICI,[6]; with tigecycline,1
same,Outcome,[6]; with tigecycline,indifferent (indifferent (0.5-4.0))
CN(C)c1cc(NC(=O)CNC(C)(C)C)c(O)c2c1C[C@H]1C[C@H]3[C@H](N(C)C)C(O)=C(C(N)=O)C(=O)[C@@]3(O)C(O)=C1C2=O [Tigecycline],Antibiotic MIC,[1],8 µg/mL
same,Antibiotic MIC,[2]; E. coli T-24a,16 µg/mL
same,Antibiotic MIC,[3],8 µg/mL
same,IC50,Tet(X4); FP assay,18.6 ± 4.9 nM
same,IC50,Tet(X4); Tet(X4) (Polarization),22 nM and 19 nM
same,MIC,"[4]; read-out: Tigecycline MIC, L-arabinose 0 %w/v",0.25 µg/mL
same,MIC,"[4]; read-out: Tigecycline MIC, L-arabinose 0.0002 %w/v",0.25 µg/mL
same,MIC,"[4]; read-out: Tigecycline MIC, L-arabinose 0.002 %w/v",0.5 µg/mL
same,MIC,"[4]; read-out: Tigecycline MIC, L-arabinose 0.02 %w/v",2 µg/mL
same,MIC,"[4]; read-out: Tigecycline MIC, L-arabinose 0.2 %w/v",8 µg/mL
same,MIC,"[4]; read-out: Tigecycline MIC, L-arabinose 0.4 %w/v",8 µg/mL
same,Antibiotic MIC,[4]; [9],4 µg/mL
same,Antibiotic MIC,[4]; without L-arabinose induction,0.25 µg/mL
same,Antibiotic MIC,[5]; Acinetobacter spp. NT3-1,4 µg/mL
same,Antibiotic MIC,[6],32 µg/mL
